Source: PubChem BioAssay (NCI)
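How tested: cells in 96-well plates exposed to compound for 48 hours at five concentrations. GI50 is the concentration that inhibits growth by half. The concentration for full growth arrest is given as TGI.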

Legend:
Test in all cases: NCI tumour cell line growth inhibition, 48 h
RXF 393 renal = system: RXF 393 renal
RPMI-8226 leukemia = system: RPMI-8226 leukemia
A549 NSCLC = system: A549 NSCLC
TK-10 renal = system: TK-10 renal
KM12 colon = system: KM12 colon
SK-OV-3 ovarian = system: SK-OV-3 ovarian
SF-295 CNS = system: SF-295 CNS
MDA-MB-435 = system: MDA-MB-435
K-562 leukemia = system: K-562 leukemia
SNB-75 CNS = system: SNB-75 CNS
SF-268 CNS = system: SF-268 CNS
OVCAR-3 ovarian = system: OVCAR-3 ovarian
MCF7 breast = system: MCF7 breast
MOLT-4 leukemia = system: MOLT-4 leukemia
T-47D breast = system: T-47D breast
HOP-62 NSCLC = system: HOP-62 NSCLC
NCI-H460 lung = system: NCI-H460 lung
DU-145 prostate = system: DU-145 prostate
SF-539 CNS = system: SF-539 CNS
SW-620 colon = system: SW-620 colon
UACC-62 melanoma = system: UACC-62 melanoma
OVCAR-5 ovarian = system: OVCAR-5 ovarian
LOX IMVI melanoma = system: LOX IMVI melanoma
EKVX NSCLC = system: EKVX NSCLC
SK-MEL-2 melanoma = system: SK-MEL-2 melanoma
HCT-15 colon = system: HCT-15 colon
CAKI-1 renal = system: CAKI-1 renal
UO-31 renal = system: UO-31 renal
IGROV1 ovarian = system: IGROV1 ovarian
NCI-H23 lung = system: NCI-H23 lung
OVCAR-8 ovarian = system: OVCAR-8 ovarian
NCI-H522 lung = system: NCI-H522 lung
HT29 colon = system: HT29 colon
U251 CNS = system: U251 CNS
HOP-92 NSCLC = system: HOP-92 NSCLC
SK-MEL-28 melanoma = system: SK-MEL-28 melanoma
SN12C renal = system: SN12C renal
MALME-3M melanoma = system: MALME-3M melanoma
HCT-116 colon = system: HCT-116 colon
HCC-2998 colon = system: HCC-2998 colon
HL-60(TB) leukemia = system: HL-60(TB) leukemia
NCI/ADR-RES ovarian = system: NCI/ADR-RES ovarian
UACC-257 melanoma = system: UACC-257 melanoma
MDA-MB-231 breast = system: MDA-MB-231 breast
786-0 renal = system: 786-0 renal
SNB-19 CNS = system: SNB-19 CNS
SK-MEL-5 melanoma = system: SK-MEL-5 melanoma
COLO 205 colon = system: COLO 205 colon
SR leukemia = system: SR leukemia
A498 renal = system: A498 renal
PC-3 prostate = system: PC-3 prostate
ACHN renal = system: ACHN renal
CCRF-CEM leukemia = system: CCRF-CEM leukemia
NCI-H226 lung = system: NCI-H226 lung
M14 melanoma = system: M14 melanoma
BT-549 breast = system: BT-549 breast
HS 578T breast = system: HS 578T breast
OVCAR-4 ovarian = system: OVCAR-4 ovarian

CC(C)c1ccc(COCc2cc(CN3CCCC3)c(O)c3ncccc23)cc1
GI50 (RXF 393 renal): 878 nM | TGI (RXF 393 renal): 3450 nM | GI50 (RPMI-8226 leukemia): 601 nM | TGI (RPMI-8226 leukemia): 2720 nM | GI50 (A549 NSCLC): 645 nM | TGI (A549 NSCLC): 8310 nM | GI50 (TK-10 renal): 409 nM | TGI (TK-10 renal): 12600 nM | GI50 (KM12 colon): 534 nM | TGI (KM12 colon): 3130 nM | GI50 (SK-OV-3 ovarian): 639 nM | TGI (SK-OV-3 ovarian): 4530 nM | GI50 (SF-295 CNS): 1180 nM | TGI (SF-295 CNS): 6260 nM | GI50 (MDA-MB-435): 855 nM | TGI (MDA-MB-435): 11200 nM | GI50 (K-562 leukemia): 374 nM | TGI (K-562 leukemia): 2440 nM | GI50 (SNB-75 CNS): 1190 nM | TGI (SNB-75 CNS): 11500 nM | GI50 (SF-268 CNS): 673 nM | TGI (SF-268 CNS): 7980 nM | GI50 (OVCAR-3 ovarian): 403 nM | TGI (OVCAR-3 ovarian): 1870 nM | GI50 (MCF7 breast): 365 nM | TGI (MCF7 breast): 1520 nM | GI50 (MOLT-4 leukemia): 378 nM | TGI (MOLT-4 leukemia): 2130 nM | GI50 (T-47D breast): 398 nM | TGI (T-47D breast): 4370 nM | GI50 (HOP-62 NSCLC): 367 nM | TGI (HOP-62 NSCLC): 5040 nM | GI50 (NCI-H460 lung): 395 nM | TGI (NCI-H460 lung): 1470 nM | GI50 (DU-145 prostate): 770 nM | TGI (DU-145 prostate): 9720 nM | GI50 (SF-539 CNS): 420 nM | TGI (SF-539 CNS): 2040 nM | GI50 (SW-620 colon): 471 nM | TGI (SW-620 colon): 2380 nM | GI50 (UACC-62 melanoma): 318 nM | TGI (UACC-62 melanoma): 1620 nM | GI50 (OVCAR-5 ovarian): 1430 nM | TGI (OVCAR-5 ovarian): 13500 nM | GI50 (LOX IMVI melanoma): 334 nM | TGI (LOX IMVI melanoma): 1400 nM | GI50 (EKVX NSCLC): 746 nM | TGI (EKVX NSCLC): 11900 nM | GI50 (SK-MEL-2 melanoma): 1610 nM | TGI (SK-MEL-2 melanoma): 4530 nM | GI50 (HCT-15 colon): 65.5 nM | TGI (HCT-15 colon): 2070 nM | GI50 (CAKI-1 renal): 146 nM | TGI (CAKI-1 renal): 4440 nM | GI50 (UO-31 renal): 127 nM | TGI (UO-31 renal): 2140 nM | GI50 (IGROV1 ovarian): 493 nM | TGI (IGROV1 ovarian): 4360 nM | GI50 (NCI-H23 lung): 708 nM | TGI (NCI-H23 lung): 3130 nM | GI50 (OVCAR-8 ovarian): 430 nM | TGI (OVCAR-8 ovarian): 2150 nM | GI50 (NCI-H522 lung): 287 nM | TGI (NCI-H522 lung): 1110 nM | GI50 (HT29 colon): 2640 nM | TGI (HT29 colon): 6830 nM | GI50 (U251 CNS): 466 nM | TGI (U251 CNS): 2450 nM | GI50 (HOP-92 NSCLC): 1670 nM | TGI (HOP-92 NSCLC): 11700 nM | GI50 (SK-MEL-28 melanoma): 768 nM | TGI (SK-MEL-28 melanoma): 10200 nM | GI50 (SN12C renal): 825 nM | TGI (SN12C renal): 4600 nM | GI50 (MALME-3M melanoma): 1450 nM | TGI (MALME-3M melanoma): 8120 nM | GI50 (HCT-116 colon): 348 nM | TGI (HCT-116 colon): 1470 nM | GI50 (HCC-2998 colon): 1580 nM | TGI (HCC-2998 colon): 6030 nM | GI50 (HL-60(TB) leukemia): 314 nM | TGI (HL-60(TB) leukemia): 1400 nM | GI50 (NCI/ADR-RES ovarian): 50.8 nM | TGI (NCI/ADR-RES ovarian): 840 nM | GI50 (UACC-257 melanoma): 783 nM | TGI (UACC-257 melanoma): 3930 nM | GI50 (MDA-MB-231 breast): 774 nM | TGI (MDA-MB-231 breast): 3270 nM | GI50 (786-0 renal): 468 nM | TGI (786-0 renal): 3830 nM | GI50 (SNB-19 CNS): 772 nM | TGI (SNB-19 CNS): 5700 nM | GI50 (SK-MEL-5 melanoma): 302 nM | TGI (SK-MEL-5 melanoma): 1150 nM | GI50 (COLO 205 colon): 3340 nM | TGI (COLO 205 colon): 11900 nM | GI50 (SR leukemia): 323 nM | TGI (SR leukemia): 2080 nM | GI50 (A498 renal): 778 nM | TGI (A498 renal): 3810 nM | GI50 (PC-3 prostate): 657 nM | TGI (PC-3 prostate): 11200 nM | GI50 (ACHN renal): 149 nM | TGI (ACHN renal): 5440 nM | GI50 (CCRF-CEM leukemia): 398 nM | TGI (CCRF-CEM leukemia): 3910 nM | GI50 (NCI-H226 lung): 912 nM | TGI (NCI-H226 lung): 3190 nM | GI50 (M14 melanoma): 351 nM | TGI (M14 melanoma): 1990 nM | GI50 (BT-549 breast): 1450 nM | TGI (BT-549 breast): 8570 nM | GI50 (HS 578T breast): 1720 nM | TGI (HS 578T breast): 7540 nM | GI50 (OVCAR-4 ovarian): 320 nM | TGI (OVCAR-4 ovarian): 1410 nM
